Measured values published in patent US9220680B2, “Compositions and methods for localized drug delivery through mammary papillae” (South Dakota State University, priority 2012, dated 2015).
“And” between values parts separate entries of the source, which are not always exact repeats. Identical values can stand only once.

Experiments:
[1] = Transmammary permeation across human mammary papilla with and without removal of the keratin plug (Experiments 12-18); assay type: in vitro ADME; conditions: for lag time / cumulative amount permeated / Drug retention in tissue / Flux: value (SEM); for cumulative amount permeated: 48 hours; for Drug retention in tissue: end of 48 hours; for Increase in permeation across the tissues upon removal of the keratin plugs: human mammary papilla
From the text: Mammary papillae tissues were thawed. […] The drug solutions were spiked with radioactive substances. […] Receptor medium was PBS with 7.4 pH. […] Results may be seen in FIG. 37 and Table 13.
Mammary papillae tissues were thawed. […] The drug solutions were spiked with radioactive substances. […] Receptor medium was PBS with 7.4 pH. […] Results may be seen in FIG. 38 and Table 15.
Mammary papillae tissues were thawed. […] The drug solutions were spiked with radioactive substances. […] Receptor medium was PBS with 7.4 pH. […] Results may be seen in FIG. 39 and Table 17.
Mammary papillae tissues were thawed. […] The drug solutions were spiked with radioactive substances. […] Receptor medium was PBS with 7.4 pH. […] Results may be seen in FIG. 40.
Mammary papillae and skin tissues were thawed. […] The drug solutions were spiked with radioactive substances. […] Receptor medium was PBS with 7.4 pH. […] Results may be seen in FIG. 41 and Table 20.
Mammary papillae and skin tissues were thawed. […] The drug solutions were spiked with radioactive substances. […] Receptor medium was PBS with 7.4 pH. […] Results may be seen in FIG. 42 and Table 22.
Mammary papillae tissues were thawed. […] The drug solutions were spiked with radioactive substances. […] Receptor medium was PBS with 7.4 pH. […] Results may be seen in FIG. 43 and Table 24.

[2] = cited from earlier work
[3] = Transmammary permeation across porcine mammary papilla with and without removal of the keratin plug (Experiments 7-10); assay type: in vitro ADME
From the text: Keratin plug was removed from human and porcine mammary papilla using an alcoholic cotton swab. The swab was gently rubbed on the surface of the mammary papilla. The mammary papilla was observed under the microscope to confirm the removal of the plug from the surface and to confirm that epidermis of the mammary papilla was not damaged during this procedure.
The drug solutions were spiked with radioactive substances. […] Receptor medium was PBS with 7.4 pH.
(§1) Mammary papillae tissues were thawed. Keratin plugs were removed from the mammary papilla tissues using swabs with ethanol. […] The drug solutions were spiked with radioactive substances. […] Receptor medium was PBS with 7.4 pH.
as §1
Mammary papillae tissues were thawed. Keratin plugs were removed from the mammary papilla tissues using swabs with ethanol. […] The drug solutions were spike with radioactive substances. […] Receptor medium was PBS with 7.4 pH.

[4] = In vitro penetration and permeation via excised porcine mammary papilla, Franz diffusion cell (Example 1); assay type: in vitro ADME
Procedure: Drug penetration and permeation via mammary papillae was performed in a Franz diffusion cell using excised porcine mammary papilla. […] The transport studies were performed at time points for 6 and 48 hours.
In a separate study to evaluate the drug retention and disposition, the treatment was removed after 6 hours and the study was continued until the 48 hour mark. Samples were withdrawn from the receptor compartment at different time points. At the end of study, the mammary papilla was cut to 2 mm thick cylindrical sections from the top to the base of the tissue and was digested using a tissue solubilizer. The drug concentrations were determined by liquid scintillation counting.
Methods for the preparation of porcine mammary papilla. Freshly excised strips of porcine mammary papilla (6-7 months old animals) were washed with deionized water followed by removal of subcutaneous fatty tissue using a scalpel. Keeping the mammary papilla in the center, 3 cm×3 cm sized specimens of the tissue were excised, subcutaneous fat tissue was removed, and the tissue was frozen at −20° C. until used for the drug penetration and permeation studies.
Breast tissue was mounted between the two compartments of a vertical Franz diffusion cell (FDC) with breast tissue sandwiched between donor and receptor compartments. A mammary papilla was set in upright position inside the donor compartment of Franz diffusion cell. […] Samples were withdrawn from the receptor at different time points for 48 hours to determine drug concentration by radioactive count. At the end of 48 hours, tissue samples were taken for drug content determination. […]
In a second study, the mammary papillae in Franz diffusion cells were treated with the drugs for 48 hours and the permeation was followed through 48 hours. This analysis provided information regarding any saturation from drug treatment for extended periods of time. […]
Extraction of drugs from the mammary papilla. At the end of permeation study, the mammary papilla was removed from Franz diffusion cell and thoroughly washed with deionized water and blotted dried. Approximately 2 mm thick sections of the tissue were taken using a scalpel. These sections were homogenized, the drug was extracted, and the drug concentration was determined by radioactive counts.

[5] = Permeation across human breast skin (Experiments 16-18); assay type: in vitro ADME
From the text: Mammary papillae and skin tissues were thawed. Keratin plugs were removed from the mammary papilla tissues using swabs with ethanol. […] The drug solutions were spiked with radioactive substances. […] Receptor medium was PBS with 7.4 pH. […] Results may be seen in FIG. 41 and Table 20.
Mammary papillae and skin tissues were thawed. Keratin plugs were removed from the mammary papilla tissues using swabs with ethanol. […] The drug solutions were spiked with radioactive substances. […] Receptor medium was PBS with 7.4 pH. […] Results may be seen in FIG. 42 and Table 22. […]

[6] = Dye penetration study of mammary papilla, confocal and fluorescence microscopy; assay type: in vitro ADME, porcine; conditions: 12 hours treatment; 2 mm section from middle of papilla; confocal laser scanning microscopy
Procedure: For dye penetration studies, 10 mM of the dye sulforhodamine B (SRB) in 1:1 of ethanol:phosphate buffer and 0.32 mM of Nile Red (NR) in propylene glycol were applied on the mammary papillae for 12 hours. At the end of the study, the tissue was washed, cut into 2 mm thick sections as described earlier and placed on a glass slide for confocal microscopy study. Confocal images of mammary papilla were taken from approximately […] below the surface of the mammary papilla.
Mammary papillae were treated with each dye for 12 hours. Then, starting from tip, 2 mm thick sections of papillae were taken (FIG. 8). Section B was taken from middle of mammary papilla and studied with confocal laser scanning microscopy. From this 2 mm thick section, xy dimensional images were taken at different depths starting from 0 to 500 μm. Because xy views are taken at different depths (the dimension z), these are xyz images. The upper image is an xyz view after treatment with hydrophilic dye SRB. […] The xz views of the mammary papillae were also analyzed.
Fluorescence Microscopy. To verify the confocal data, cryo-sectioning of mammary papillae was performed after 12 hours treatment with the dyes. […] Sections from various different depths of the papilla and studied by fluorescence microscopy. […]

[7] = EST 15 mg/ml, human mammary papilla with keratin plug removal
[8] = EST 15 mg/ml, human mammary papilla without keratin plug removal
[9] = excised porcine mammary papilla, saturated solution in ethanol:water (50:50), 48 h, mean ± SEM, n=3
[10] = porcine mammary papilla, end of 48 h, mean ± SEM, n=3
[11] = dextran 10 mg/ml, human mammary papilla with keratin plug removal, *Values multiplied by 1000
[12] = dextran 10 mg/ml, human mammary papilla without keratin plug removal, *Values multiplied by 1000
[13] = porcine mammary papilla after keratin plug removal, 48 hours, n=4
[14] = porcine mammary papilla after keratin plug removal, end of 48 hours
[15] = porcine mammary papilla after keratin plug removal, end of 48 hours, n=4

C[C@]12CC[C@@H]3c4ccc(O)cc4CC[C@H]3[C@@H]1CC[C@@H]2O [EST, estradiol]
lag time ([1]; EST 15 mg/ml in 50:50 ethanol:water, human mammary papilla with keratin plug removal): 2.08 (0.28) hours
cumulative amount permeated [1, 7]: 2.62 (0.97) μmole
Drug retention in tissue [1, 7]: 6.25 (2.12) umole/g of tissue
Flux [1, 7]: 0.09 (0.03) μmole/cm^2/hour
cumulative amount permeated [1, 8]: 0.58 (0.06) μmole
Drug retention in tissue [1, 8]: 1.06 (0.04) umole/g of tissue
Flux [1, 8]: 0.01 (0.00) μmole/cm^2/hour
lag time [1, 8]: 7.02 (0.94) hours
Permeation profile via human vs porcine mammary papillae ([1]; after keratin plug removal, 48 hours (Experiment 15)): similar
Increase in permeation across the tissues upon removal of the keratin plugs [1]: more than 10 fold
Log P [2]: 3.6
Change of permeation upon removal of the keratin plugs (in words) ([3]; porcine mammary papilla, donor in 50:50 ethanol:water, 48 hours): increases significantly
Lag time ([4]; excised porcine mammary papilla, Franz diffusion cell, saturated solution in ethanol:water (50:50), 48 h, mean ± SEM, n=3): 7.07 ± 0.29 h
Cumulative % permeated [4, 9]: 1.03 ± 0.08%
Flux × 10^3 [4, 9]: 2.57 ± 0.15 μM · cm^2 · hr^−1
Permeability coefficient × 10^3 [4, 9]: 0.05 ± 0.002 cm^2 · hr^−1
cumulative amount permeated [4, 9]: 0.23 ± 0.02 µM
Cumulative % retained [4, 10]: 4.52 ± 0.59%
Drug extraction from 2 mm thick mammary papilla sections, Section A (tip) [4, 10]: 5.45 ± 0.49 µM/g
Drug extraction from 2 mm thick mammary papilla sections, Section B [4, 10]: 3.63 ± 0.26 µM/g
Drug extraction from 2 mm thick mammary papilla sections, Section C [4, 10]: 2.53 ± 0.31 µM/g
Drug extraction from 2 mm thick mammary papilla sections, Section D (base) [4, 10]: 1.55 ± 0.53 µM/g
Permeation across mammary papilla (in words) ([4]; porcine mammary papilla, treatment up to 48 hours): significant EST transport across the mammary papilla
lag time ([5]; EST 15 mg/ml in 50:50 ethanol:water, human breast skin, value (SEM)): 0.56 (0.22) hours
cumulative amount permeated ([5]; EST 15 mg/ml, human breast skin, 48 hours, value (SEM)): 2.10 (0.16) μmole
Drug retention in tissue ([5]; EST 15 mg/ml, human breast skin, end of 48 hours, value (SEM)): 2.94 (0.30) umole/g of tissue
Flux ([5]; EST 15 mg/ml, human breast skin, value (SEM)): 0.07 (0.01) μmole/cm^2/hour

CCN(CC)c1ccc2nc3c4ccccc4c(=O)cc-3oc2c1 [NR, Nile Red]
Log P [2]: 3.8
Distribution of dye fluorescence in mammary papilla [6]: observed only in and around the ducts

CCN(CC)c1ccc2c(-c3ccc(S(=O)(=O)O)cc3S(=O)(=O)[O-])c3ccc(=[N+](CC)CC)cc-3oc2c1 [SRB, sulforhodamine B]
Log P [2]: −0.74
Distribution of dye fluorescence in mammary papilla [6]: distribution of the dye in both the ducts and in the surrounding tissue

dextran
lag time ([1]; dextran 10 mg/ml in 50:50 ethanol:water, human mammary papilla with keratin plug removal): 9.63 (0.90) hours
cumulative amount permeated [1, 11]: 119.42 (19.35)* μmole
Drug retention in tissue [1, 11]: 789.33 (99.11)* umole/g of tissue
cumulative amount permeated [1, 12]: 16.54 (7.32)* μmole
Drug retention in tissue [1, 12]: 89.88 (19.26)* umole/g of tissue
lag time ([1]; dextran 10 mg/ml, human mammary papilla without keratin plug removal): 14.74 (1.41) hours
Increase in permeation across the tissues upon removal of the keratin plugs [1]: more than 7 fold
Increase in permeation upon removal of the keratin plugs ([3]; porcine mammary papilla, 10 mg/ml in 50:50 ethanol:water, 48 hours): approximately 2 folds
Penetration via human breast skin (in words) ([5]; 48 hrs treatment): no penetration of dextran even with 48 hrs treatment
lag time ([5]; dextran 10 mg/ml in 1:1 ethanol:water, human breast skin, value (SEM)): 30.15 (3.04) hours

inulin
Transmammary flux ([3]; porcine mammary papilla): 0.33 μg/sq·cm/h
lag time ([3]; porcine mammary papilla after keratin plug removal, 10 mg/ml in 50:50 ethanol:water, n=4): 16.7 h and 16.78 h
Drug permeation (% of applied dose) [3, 13]: 0.37 % of applied dose
cumulative amt. permeated [3, 13]: 0.0037 µmol
Amount permeated across the tissue [3, 14]: 18.37 µg
Amount retaining into the tissue [3, 14]: 41.28 µg
Drug retention in tissue (% of applied dose) [3, 15]: 0.83 % of applied dose
Skin retention [3, 15]: 0.023 umole/g of tissue
Total drug retention in tissue [3, 15]: 0.0083 µmol
Flux ([3]; porcine mammary papilla after keratin plug removal, n=4): 0.000066 μmole/sq.cm/hr
